Data from doi:10.1101/2021.11.05.467463v1 (biorxiv, 2021).
pIC50: −log10 of the molar value. ≈ marks a conversion by molar mass, not a printed value. One block for each molecule: values may come before it.

How the values were obtained:
[1] = molecular target: T1, PfPKG (Plasmodium falciparum, UniProt Q8I719); assay: in vitro PfPKG enzyme inhibition assay; assay type: biochemical; details: […] compound
[2] = molecular target: CYP3A4 (Homo sapiens, UniProt P08684); assay: in vitro CYP3A4 inhibition; assay type: biochemical
Chain of CYP3A4 (P08684 2-503): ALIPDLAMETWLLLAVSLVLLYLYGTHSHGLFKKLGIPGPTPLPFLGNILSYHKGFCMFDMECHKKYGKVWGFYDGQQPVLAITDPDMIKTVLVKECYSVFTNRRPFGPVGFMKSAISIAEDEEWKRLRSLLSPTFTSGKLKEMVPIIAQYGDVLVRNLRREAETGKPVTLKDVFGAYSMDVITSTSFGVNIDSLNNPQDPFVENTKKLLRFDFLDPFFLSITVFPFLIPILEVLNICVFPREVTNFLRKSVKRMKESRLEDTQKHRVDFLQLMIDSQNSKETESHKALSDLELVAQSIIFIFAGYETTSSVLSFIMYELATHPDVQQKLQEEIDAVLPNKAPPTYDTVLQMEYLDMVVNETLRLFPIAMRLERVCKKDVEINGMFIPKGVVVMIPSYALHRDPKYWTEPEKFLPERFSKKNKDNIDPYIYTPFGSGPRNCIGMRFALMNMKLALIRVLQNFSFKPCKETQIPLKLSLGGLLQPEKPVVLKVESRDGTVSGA

[3] = molecular target: T1, PfPKG; assay: in vitro PfPKG enzyme inhibition assay; assay type: biochemical
[4] = molecular target: T1, PfPKG; assay: in vitro PfPKG enzyme inhibition assay; assay type: biochemical; details: […] compound; remark: listed apart in the source
[5] = physchem; details: water
[6] = mouse, microsomes

T1 sequence (Q8I719 whole entry): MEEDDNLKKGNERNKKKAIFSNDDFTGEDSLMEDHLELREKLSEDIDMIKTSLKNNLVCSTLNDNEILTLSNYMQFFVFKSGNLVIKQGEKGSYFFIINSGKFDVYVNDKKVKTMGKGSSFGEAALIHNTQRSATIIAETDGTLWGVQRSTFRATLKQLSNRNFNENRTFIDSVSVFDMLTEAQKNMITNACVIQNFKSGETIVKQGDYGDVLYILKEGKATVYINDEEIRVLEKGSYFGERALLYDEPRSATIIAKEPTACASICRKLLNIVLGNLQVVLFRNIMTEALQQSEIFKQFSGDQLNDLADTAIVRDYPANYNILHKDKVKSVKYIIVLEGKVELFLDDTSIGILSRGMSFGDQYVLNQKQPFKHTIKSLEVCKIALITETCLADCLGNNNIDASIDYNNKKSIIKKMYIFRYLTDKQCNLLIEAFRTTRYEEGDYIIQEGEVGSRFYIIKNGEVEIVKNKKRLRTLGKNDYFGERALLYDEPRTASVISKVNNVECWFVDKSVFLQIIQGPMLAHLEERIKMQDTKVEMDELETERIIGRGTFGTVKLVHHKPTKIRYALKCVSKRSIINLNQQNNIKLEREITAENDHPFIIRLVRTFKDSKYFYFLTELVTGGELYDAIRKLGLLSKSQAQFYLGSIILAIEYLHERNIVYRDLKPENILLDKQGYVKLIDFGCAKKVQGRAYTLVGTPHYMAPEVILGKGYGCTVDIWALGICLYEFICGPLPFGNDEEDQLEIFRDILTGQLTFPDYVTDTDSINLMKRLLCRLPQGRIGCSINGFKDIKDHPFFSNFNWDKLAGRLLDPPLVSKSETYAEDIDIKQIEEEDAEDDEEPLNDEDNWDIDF

SMILES: Cc1cn(-c2ccnc(NC3CCCN(C(=O)c4nccs4)C3)n2)c(-c2ccccc2)n1 (racemic) [10d]
% inh @ 1 μM [1]: 4%

SMILES: Cc1cn(-c2ccnc(N[C@@H]3CCN(C(=O)c4nccs4)C3)n2)c(-c2ccccc2)n1 [10a]
pIC50 [2]: 6.03

SMILES: CN1CCC(c2cc(-c3ccc(F)cc3)c(-c3ccncc3)[nH]2)CC1 [compound 5, pyrrole 5]
pIC50 [3]: 7.66

SMILES: Cc1cn(-c2ccnc(NC3CCN(C(=O)c4nccs4)CC3)n2)c(-c2ccccc2)n1 [10e]
% inh @ 1 μM [1]: 5%

SMILES: Cc1cn(-c2ccnc(NCC3CCCN3C(=O)c3nccs3)n2)c(-c2ccccc2)n1 (racemic) [10f]
% inh @ 1 μM [1]: 3%

SMILES: Cc1cn(-c2ccnc(N[C@H]3CCN(C(=O)c4nccs4)C3)n2)c(-c2ccccc2)n1 [10c]
% inh @ 1 μM [1]: 4%

Next, values leading:

% inhib @ 1 μM [4]: 47%
SMILES: Cc1cn(-c2ccnc(N[C@@H]3CCN(C(=O)c4nccs4)C3)n2)c(-c2ccccc2Cl)n1 [18b]

solubility [5]: 92 µM (≈ 42.1 µg/mL)
MLM t1/2 [6]: < 2 min
SMILES: O=C(c1nccs1)N1CC[C@@H](Nc2nccc(-n3cc(C4CC4)nc3-c3ccccc3)n2)C1 [14a]

solubility [5]: 28 µM (≈ 13.8 µg/mL)
MLM t1/2 [6]: <2 min
SMILES: O=C(c1nccs1)N1CC[C@@H](Nc2nccc(-n3cc(C4CC4)nc3-c3cccc(Cl)c3)n2)C1 [14b]
